# Reference: patent US20060252830A1, “Method for the treatment of magnesium and potassium deficiencies” (priority 2005, published 2006)
# Key:
# [1] = test system: patients with atrial fibrillation; conditions: oral; two 6 month studies; cited from earlier work
# [2] = test system: patients receiving sotalol or dofetilide; test: Randomized, double-blind, placebo-controlled study: 12-lead ECG intervals in people taking dofetilide or sotalol; format: in vivo, human
# Method: (§1) A randomized, double-blind, placebo-controlled study was performed at Hartford Hospital. People taking dofetilide or sotalol therapy for at least 5 half-lives were eligible for inclusion. […] After enrollment, people who discontinued their sotalol or dofetilide or altered their dosage of these drugs were excluded as well. Thirty-four participants were enrolled in the study. Three were subsequently excluded because the antiarrhythmics they were using were discontinued or the dose of the antiarrhythmics changed during the study. Given the known baseline differences in QTc intervals among men and women, each gender was randomized separately using stratified allocation. Patients completing the study (n=30) were well matched for baseline characteristics, which are reflected in Table 1. Intracellular concentrations of essential elements were available for 19 subjects. Overall 63.2% of patients (regardless of experimental group) had baseline intracellular magnesium concentrations below the normal reference range of 33.9-41.9 mEq/IU with an average level of 32.6±2.2 mEq/IU. All of the other baseline intracellular elements evaluated (phosphorus, chloride, calcium, potassium, and sodium) were within the reference range although the phosphorus was at the top of the range (average=16.7±2.8 mEq/IU with reference range of 14.2-17.0 mEq/IU).
# (§2) Participants received three tablets of magnesium L-lactate (Mag-Tab SR®; Niche Pharmaceuticals; Roanoke, Tex.) or matching placebo twice daily (504 mg of elemental magnesium daily) for 48 hours (i.e. t=0, 12 h, 24 h, 36 h, and 48 h). A 12-lead electrocardiogram (ECG) was recorded at 25 mm/sec at rest prior to initiation of treatment (i.e. baseline) and at 3 and 51 hours after the first dose of magnesium (i.e. t=3 h and t=51 h) for each participant. A single blinded investigator read all ECGs using a precision ruler of 0.5 mm scale (Schlaedler-Quinzel, Inc. Parsippany, N.J.).
# QT intervals were measured from the onset of the Q wave (or R/S wave if there was no Q wave) to the end of the T wave where it merges with the isoelectric baseline. The beginning and end of the QRS complex were determined by visual inspection, whereas the end of the T-wave was obtained by extrapolating the descending slope of the T-wave to the isoelectric baseline. When a U wave interrupts the down-sloping of the T-wave, the visible portion of the T wave was extrapolated to the T-P baseline to define the end of the T-wave. The R-R interval was measured from the peak of one R wave to the peak of an adjacent R wave. The QTc interval was corrected for heart rate using Bazett's formula [QTc=QT/(RR)^1/2].
# Continuous data was expressed by a mean±SD. A p value less than 0.05 was considered statistically significant. The primary analysis was the intergroup comparisons of the change in QTc interval from baseline at 3 hours and 51 hours using Bazett's formula. Evaluations of the QRS, QT, and RR intervals were compared between groups at each time period as well. Mann-Whitney tests were used for all statistical analyses of continuous ECG data. Intracellular element intragroup comparisons were performed with a paired t-test. Chi^2 or Fischer's Exact tests were used for categorical comparisons. Statistical analysis was performed using SPSS version 5.
# [3] = Intracellular elemental concentrations in sublingual buccal smears (EXAtest, energy-dispersive X-ray analysis); format: in vivo, human; conditions: p=0.002; all patients below the normal reference range at baseline reached it
# Method: as §1, with “Patients completing the study (n=30) were well matched for baseline characteristics, which are reflected in Table 1. Intracellular concentrations of essential elements were available for 19 subjects. Overall 63.2% of patients (regardless of experimental group) had baseline intracellular magnesium concentrations below the normal reference range of 33.9-41.9 mEq/IU with an average level of 32.6±2.2 mEq/IU.” left out
# as §2, with “A single blinded investigator read all ECGs using a precision ruler of 0.5 mm scale (Schlaedler-Quinzel, Inc. Parsippany, N.J.).” left out
Structure (SMILES),maintaining sinus rhythm [1],QT interval reduction ([2]; 3 hours),"reduction in the QTc interval from baseline ([2]; 3 hours, group receiving diuretics)","reduction in the QTc interval from baseline ([2]; 3 hours, no diuretic group)","reduction in the QTc interval from baseline ([2]; 51 hours, group receiving diuretics)","reduction in the QTc interval from baseline ([2]; 51 hours, no diuretic group)",change of intracellular magnesium concentrations after magnesium supplementation [3]
[Mg+2].[OH-].[OH-] [magnesium hydroxide],ineffective,–,–,–,–,–,–
"C[C@H](O)C(=O)[O-].C[C@H](O)C(=O)[O-].O.O.[Mg+2] [Magnesium L-lactate, magnesium l-lactate dihydrate]",–,15 ms,51.1 ± 42 ms,25.5 ± 27.9 ms,24.7 ± 24.3 ms,26.2 ± 27.4 ms,rose significantly
